In patent US20250186420A1, “POLYMETHINIUM SALTS AS INHIBITORS OF DIHYDROOROTATE DEHYDROGENASE” (UNIVERZITA KARLOVA, priority 2022, published 2025):

How the values were obtained:
Format in all cases: cell-based
[1] = test system: DHODH-dependent respiration in PNT1A cell line; test: Inhibition of DHODH-dependent respiration (Oxygraph-2k); settings: model of normal prostate tissue, test substance 1 to 4 nM, permeabilized cells
Protocol: (§1) DHODH-dependent respiration was performed as follows. Cells were trypsinized, washed with PBS, resuspended in an amount of 2×10^6 cells per ml Mir05 medium (0.5 mM EGTA, 3 mM MgCl2, 60 mM K-lactobionate, 20 mM taurine, 10 mM KH2PO4, 110 mM sucrose, 1 g/L bovine serum albumin, 20 mM Hepes, pH 7.1 at 30° C.) and transferred to the chamber of the Oxygraph-2k instrument (Oroboros). Respiration was measured at 37° C. Cells were permeabilized with 5 μg of digitonin per 10^6 cells, and complex I inhibitor (0.3 μM rotenone) and test substance were added at concentrations from 1 to 4 nM before adding the substrate. DHODH-mediated respiration was assessed by subtracting the residual rate of respiration remaining after the addition of 30 μM leflunomide from the rate of respiration in the presence of 1 mM dihydroorotate (DHO), 3 mM ADP, and 10 μM cytochrome c.

[2] = test system: DHODH-dependent respiration in PC-3; test: as above; settings: PC-3 tumor line; test substance 1 to 4 nM; permeabilized cells
Protocol: as §1

[3] = test system: DHODH-dependent respiration in U-2 OS; test: as above; settings: U-2 OS tumor line; test substance 1 to 4 nM; permeabilized cells
Protocol: as §1

PNTA [4] = test: xCELLigence real-time impedance cell migration; settings: for Normalized cell index (cell migration): cell index normalized to 1.0 at addition of test agent, concentration based on IC50 for the cell line
Protocol: (§2) The xCELLigence system based on real-time cell impedance analysis (RTCA) was used to determine invasiveness and migration rates. The xCELLigence system consists of four main components: an RTCA DP station, an RTCA computer with integrated software, and CIM 16 disposable plates. First, the optimal cell seeding concentration for the proliferation and invasiveness assay was determined. After seeding the total number of cells in 200 μl medium into each well in E-plate 16, cell adherence and proliferation were monitored every 15 minutes. For the invasiveness assay, the optimal response was found in a well containing 20,000 cells. After coating the upper wells with matrigel and adding FBS as a chemoattractant, cells were seeded in 100 μl medium in each well of a CIM-plate 16. Adherence and growth of cells through the matrigel was monitored every 15 minutes. The duration of all experiments was 150 hours. The relative invasiveness rate was defined as the cellular index for matrigel-coated wells (cells must spread/pass through the matrigel to generate a signal) at a given time point. The impedance of electron flow due to adherent cells is given by a unitless parameter called the cell index (CI), where CI=(impedance at time point n-impedance in the absence of cells)/nominal impedance value). In order to compare individual cell lines/treatment, these cell indices were normalized to 1.0 at the time the test agents were added. Concentrations of compounds were chosen based on the IC50 inhibitory concentration for each cell line.

PC-3 [5] = test: xCELLigence real-time impedance cell migration; settings: for Normalized cell index (cell migration): cell index normalized to 1.0 at addition of test agent, concentration based on IC50 for the cell line
Protocol: as §2

U-2 OS [6] = test: xCELLigence real-time impedance cell migration; settings: for Normalized cell index (cell migration): cell index normalized to 1.0 at addition of test agent, concentration based on IC50 for the cell line
Protocol: as §2

PNTA [7] = test: xCELLigence real-time impedance cell invasiveness (matrigel); settings: for Normalized cell index (cell invasiveness): matrigel-coated wells, normalized to 1.0 at addition of test agent, concentration based on IC50 for the cell line
Protocol: as §2

PC-3 [8] = test: as above; settings: for Normalized cell index (cell invasiveness): matrigel-coated wells, normalized to 1.0 at addition of test agent, concentration based on IC50 for the cell line
Protocol: as §2

U-2 OS [9] = test: as above; settings: for Normalized cell index (cell invasiveness): matrigel-coated wells, normalized to 1.0 at addition of test agent, concentration based on IC50 for the cell line
Protocol: as §2

Row | SMILES | DHODH-dependent respiration [1] | DHODH-dependent respiration [2] | DHODH-dependent respiration [3] | Control-substance (difference of normalized cell index, cell migration) (PNTA [4]) | Normalized cell index (cell migration) (PNTA [4]) | Control-substance (difference of normalized cell index, cell migration) (PC-3 [5]) | Normalized cell index (cell migration) (PC-3 [5]) | Control-substance (difference of normalized cell index, cell migration) (U-2 OS [6]) | Normalized cell index (cell migration) (U-2 OS [6]) | Control-substance (difference of normalized cell index, cell invasiveness) (PNTA [7]) | Normalized cell index (cell invasiveness) (PNTA [7]) | Control-substance (difference of normalized cell index, cell invasiveness) (PC-3 [8]) | Normalized cell index (cell invasiveness) (PC-3 [8]) | Control-substance (difference of normalized cell index, cell invasiveness) (U-2 OS [9]) | Normalized cell index (cell invasiveness) (U-2 OS [9])
1 | CCCN1/C(=C/C=C(/C=C/c2sc3ccccc3[n+]2CCC)c2ccccc2)Sc2ccccc21.[I-] [Substance 1] | unaffected | caused a decrease in DHODH-dependent respiration | caused a decrease in DHODH-dependent respiration | 15.2 | 3.4 | 30.0 | 8.8 | 20.8 | 3.5 | 16.9 | 2.8 | 21.4 | 1.4 | 24.3 | 1.3
2 | CCCN1/C(=C/C=C(/C=C/C2=[N+](CCC)c3ccccc3C2(C)C)c2ccncc2)C(C)(C)c2ccccc21.[I-] [Substance 2] | unaffected | caused a decrease in DHODH-dependent respiration | caused a decrease in DHODH-dependent respiration | 11.6 | 7.0 | 19.3 | 19.5 | 20.4 | 3.9 | 16.5 | 3.2 | 17.4 | 5.4 | 23.7 | 1.9
